PubChem BioAssay AID1035470 (Broad Institute, 2014)
Inconclusive results are not listed. The source made the active and inactive calls.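 Rule for the calls: active = compound lowering the normal-ribosome reporter at least twice as much as the humanized-ribosome reporter, growth loss under a set limit; inconclusive = no clear call, values can overlap the other calls; inactive = the rest.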

Tested on: E. coli WT-GFP vs G2058-humanized RFP, fluorescence, 24 h
Assay: growth inhibition of wild-type GFP E. coli versus G2058-humanized strain, dose response, G2058 mutant RFP vs wild-type GFP, cherry-pick, two tests (AID 1035470)
[1] = measured here: G2058 humanized mutant RFP growth
[2] = E. coli WT-GFP vs G2058-humanized RFP mixed culture, total growth OD600, 24 h

SMILES | AC50 | AC50 [1] [µM] | AC50 [2] [µM]
CN(c1ccccc1)S(=O)(=O)c1cccc(NC(=O)CCNC(=O)c2ccc([N+](=O)[O-])cc2)c1 | > 100 µM (inactive) | – | –
O=C(c1ccc(Cl)cc1)C1CCCN(Cc2cccc3cnccc23)C1 (stereo not drawn) | – | > 100 | –
O=C(CN1CCN(S(=O)(=O)c2ccc(Cl)cc2)CC1)Nc1ccc2c(c1)CCC2 | > 100 µM (inactive) | – | –
Cc1cc(C(=O)NCCC2=CCCCC2)ccc1[N+](=O)[O-] | > 100 µM (inactive) | – | > 100
COc1ccc(C(=O)C[n+]2ccc3c(c2)nc(-c2cc(OC)c(OC)cc2OC)n3C)cc1 | – | – | > 100
CCOC(=O)c1cccc(OS(=O)(=O)Cc2ccccc2)c1 | – | – | > 100
Cc1nn(-c2cccc(Cl)c2)nc1C(=O)O | > 100 µM (inactive) | – | > 100
COc1ccc(-c2cc(C(=O)N3CCc4ccccc4C3)no2)cc1 | > 100 µM (inactive) | – | –
CCC1(C(=O)OC)CCc2c(cc(OC)c3ccccc23)C1=O (stereo not drawn) | > 100 µM (inactive) | – | –
COc1ccc(OC)c(NC(=O)CN(C)CC(=O)Nc2ccccc2Br)c1 | – | – | > 100
Cc1ccc(Nc2cc(C(=O)NCCCN3CCOCC3)c3ccccc3n2)cc1C | > 100 µM (inactive) | – | > 100
CCOC(=O)c1cc(C)nc(N2CCCCC2)c1C#N | > 100 µM (inactive) | – | > 100
COc1ccc(-c2nc(NC(C)=O)sc2-c2ccccc2)cc1 | > 100 µM (inactive) | – | –
CCOc1ccccc1NC(=O)c1cc(SC)ccc1Cl | > 100 µM (inactive) | – | > 100
CNC(=O)C[C@H]1CC[C@@H]2[C@@H](COc3ccc(NC(=O)Nc4ccc(F)c(F)c4)cc3C(=O)N2C)O1 | > 100 µM (inactive) | – | –
Cc1cccc(NC(=O)c2sc3nc(-c4ccccc4)cn3c2C)n1 | > 100 µM (inactive) | – | > 100
COC(=O)c1ccsc1NC(=O)c1cccc(OC)c1 | – | 5.79 | –
O=C(Cn1cc(COc2c(F)c(F)cc(F)c2F)nn1)c1ccc(O)cc1 | > 100 µM (inactive) | – | > 100
COC(=O)c1ccc2nc(-c3ccco3)c(Cc3ccc(C)cc3)n2c1 | – | – | > 100
CN(C)S(=O)(=O)c1ccc(Cl)c(C(=O)OCC(=O)NC(=O)c2cccn2C)c1 | > 100 µM (inactive) | – | –
O=c1c2ccccc2nc(SCc2ccccc2)n1CC1CCCO1 (stereo not drawn) | – | – | > 100
O=S(=O)(c1ccc(Cl)cc1)N1CCN=C1SCc1cccc(Cl)c1 | > 100 µM (inactive) | – | –
CCN(CC(=O)Nc1cccc(C#N)c1)CC(=O)Nc1cccc(OC)c1 | – | – | > 100

SMILES | AC50 | AC50 [1] [µM] | AC50 [2] [µM]
O=C(COn1nnc2ccc(C(F)(F)F)cc21)Nc1c(Cl)cccc1Cl | > 100 µM (inactive) | – | > 100
CCn1cc(Br)c(C(=O)Nc2ccc(C(=O)OC(C)C)cc2)n1 | > 100 µM (inactive) | – | –
COc1ccccc1N(C)S(=O)(=O)c1ccc(Cl)c(C(=O)NC2=NCCS2)c1 | – | 46.3 | –
COc1cccc(NC(=O)COC(=O)Cc2ccc(Br)cc2)c1 | > 100 µM (inactive) | – | > 100
O=c1c2ccccc2cnn1Cc1n[nH]c(=S)n1C1CC2CCC1C2 (stereo not drawn) | > 100 µM (inactive) | – | > 100
COC(=O)c1ccc(CN2CCCC(CO)(Cc3ccccc3F)C2)cc1 (stereo not drawn) | > 100 µM (inactive) | – | > 100
COc1ccc(-n2c(-c3ccc(C)cc3)nc3ccccc3c2=O)cc1 | > 100 µM (inactive) | – | –
Cc1csc2c(N3CCC(C(=O)O)CC3)ncnc12 | > 100 µM (inactive) | 50.4 | > 100
CS(=O)(=O)NCCSc1cc(C(F)(F)F)nc2ccccc12 | > 100 µM (inactive) | – | –
CCC(=O)Nc1nc2ccc(NC(=O)c3cc(OC)c(OC)c(OC)c3)cc2s1 | > 100 µM (inactive) | – | –
Cc1cccc(C(=O)NCC(=O)NCCSc2ccc(Br)cc2)c1 | > 100 µM (inactive) | 7.48 | –
CCC1CCCCN1C(=O)CSc1nnc(-c2cccc(Cl)c2)o1 (stereo not drawn) | – | – | > 100
Cc1cc2c(sc3ccccc32)c(C)n1 | > 100 µM (inactive) | 48.8 | > 100
O=C(Nc1ccc(Br)cc1)c1cccnc1N1CCCCC1 | > 100 µM (inactive) | – | > 100
CCc1cc2cc(OC)ccc2nc1SCC(=O)Nc1cc(OC)c(OC)cc1C(=O)O | > 100 µM (inactive) | – | > 100
Nc1ccccc1Sc1c[nH]c2ccccc12 | > 100 µM (inactive) | – | > 100
CC(C)(C)C1CCC(C(=O)OCC(=O)N2CCN(C(=O)c3ccco3)CC2)CC1 (stereo not drawn) | > 100 µM (inactive) | – | –
CC1Cc2cc(-c3csc(NC(=O)Cc4ccccc4)n3)ccc2N1S(C)(=O)=O (stereo not drawn) | > 100 µM (inactive) | – | > 100
COc1ccc(N(CCC(=O)O)S(=O)(=O)c2ccc(C)cc2C)cc1 | > 100 µM (inactive) | – | > 100
OC(COc1ccc(Cl)cc1)CN1CCN(c2ccccn2)CC1 (stereo not drawn) | > 100 µM (inactive) | – | –
CC1CCN(c2ccc3nnc(CCC(=O)Nc4cccc(F)c4)n3n2)CC1 | > 100 µM (inactive) | – | > 100
CC(CCc1ccccc1)NC(=O)CCC1CCCC1 (stereo not drawn) | – | – | > 100
CC[n+]1c(C)cc2c(sc3ccccc32)c1C | – | > 100 | > 100

SMILES | AC50 | AC50 [1] [µM] | AC50 [2] [µM]
Nc1ccccc1Sc1ccc(C(F)(F)F)cc1[N+](=O)[O-] | > 100 µM (inactive) | > 100 | > 100
O=C(Nc1ccc(F)c(Cl)c1)C1CC2CCC1C2 (stereo not drawn) | > 100 µM (inactive) | – | –
Nc1c(C(=O)NCCN2CCOCC2)c2nc3ccccc3nc2n1Cc1ccccc1 | > 100 µM (inactive) | – | –
COC(=O)c1sc(C(C)(C)C)cc1CS(=O)(=O)c1ccc(Cl)cc1 | > 100 µM (inactive) | – | > 100
CCCC#C/C(CCC)=C1\c2ccccc2C(=O)N1c1ccccc1 | > 100 µM (inactive) | – | > 100
COC(=O)c1sccc1NC(=O)CNC(=O)c1ccccc1 | – | – | > 100
COc1cccc(C(=O)C2CCCN(C/C=C/c3ccccc3OC)C2)c1 (stereo not drawn) | > 100 µM (inactive) | > 100 | –
COc1ccc(NC(=O)Nc2cccc3c2O[C@@H](CN(C)S(=O)(=O)c2ccc(Cl)cc2)[C@@H](C)CN([C@@H](C)CO)C3=O)cc1 | > 100 µM (inactive) | – | –
CC(C)NC(=O)N(C)C[C@H]1OCCCC[C@@H](C)Oc2ccc(NC(=O)c3ccccc3)cc2C(=O)N([C@@H](C)CO)C[C@H]1C | > 100 µM (inactive) | – | –
CCOC(=O)c1cnc2c(c(C)nn2C)c1Oc1ccc(OC)cc1 | > 100 µM (inactive) | – | –
O=C(Nc1cc(S(=O)(=O)N2CCCCC2)ccc1N1CCCCC1)C1CC1 | > 100 µM (inactive) | – | –
CC(=O)Oc1ccc(N(C(C)=O)S(=O)(=O)c2ccc(C)cc2)c2ccccc12 | > 100 µM (inactive) | – | > 100
O=C(CN1C(=O)c2ccccc2C1=O)Nc1cccc(S(=O)(=O)Nc2ccccc2Cl)c1 | > 100 µM (inactive) | – | > 100
Cc1noc(C)c1COc1cccc(C(=O)N2CCc3ccccc32)c1 | > 100 µM (inactive) | – | –
CCOc1ccccc1C(=O)NCC(=O)OCCOc1cccc(Cl)c1 | – | > 100 | –
NS(=O)(=O)c1ccc(NC(=O)CCC(=O)O)cc1 | – | – | > 100
COc1ccccc1NC(=O)COC(=O)Cc1c[nH]c2ccccc12 | – | > 100 | –
Cc1cccc(Nc2nc(-c3ccc(F)cc3)cs2)n1 | > 100 µM (inactive) | – | > 100
CCOC(=O)c1[nH]c2ccccc2c1NC(=O)c1ccc(Br)o1 | > 100 µM (inactive) | – | > 100
Cc1cc(NC(=O)CCCn2cc([N+](=O)[O-])cn2)n(Cc2ccc(F)cc2)n1 | > 100 µM (inactive) | – | > 100
CCOC(=O)C1NN=C(C(=O)c2ccccc2)C1c1ccc(OC)cc1 (stereo not drawn) | – | – | > 100
COC(=O)c1ccc(OCC(=O)c2ccccc2OC)cc1 | > 100 µM (inactive) | – | > 100
Cc1c(-c2cccc(Cl)c2)nc2ccccc2c1C(=O)N1CCC2(CC1)OCCO2 | > 100 µM (inactive) | – | –

SMILES | AC50 | AC50 [1] [µM] | AC50 [2] [µM]
CC(=O)CSc1ccc(-c2nc3ccccc3[nH]2)cn1 | > 100 µM (inactive) | – | > 100
O=C(Nc1cccc(Cl)c1)N1C[C@@H]2[C@H](c3ccccc31)[C@H](CO)N2Cc1ccncc1 | > 100 µM (inactive) | – | > 100
Cc1cc(C(C)(C)C)oc1C(=O)N(CC(=O)NC1CCCC1)c1c(C)cccc1C | > 100 µM (inactive) | – | –
COc1cccc(-c2ccc(SCc3ccccn3)nn2)c1 | > 100 µM (inactive) | – | –
COc1ccc(CN2C(=O)CC(Cc3cc(C)cc(C)c3)C2=O)cc1OC (stereo not drawn) | – | – | > 100
CC1(c2ccc3ccccc3c2)NC(=O)N(CC(=O)N2CCN(c3ccccc3O)CC2)C1=O (stereo not drawn) | > 100 µM (inactive) | – | > 100
Cc1ccc(CNS(=O)(=O)c2ccc3c(c2)NC(=O)CS3)cc1 | > 100 µM (inactive) | – | –
CC(=O)N1CCOc2ccc(S(=O)(=O)N(C)c3ccc(C)cc3)cc21 | > 100 µM (inactive) | – | –
Cc1nn2c(NCc3ccccn3)cc(C(C)C)nc2c1-c1ccccc1 | – | – | > 100
CSc1ccccc1C(=O)NCCc1ccc(S(=O)(=O)N2CCCCC2)cc1 | > 100 µM (inactive) | – | –
COc1ccc(C#Cc2ccc([C@@H]3[C@@H](CO)N4CCCCN(C(=O)Nc5ccccc5F)C[C@H]34)cc2)cc1 | > 100 µM (inactive) | – | –
Cc1ccc(S(=O)(=O)N2CCOCC2)cc1NC(=O)COc1ccc(-c2nnco2)cc1 | > 100 µM (inactive) | – | –
CC(C)CNC(=O)c1cccc(NC(=O)C(C)Oc2ccccc2)c1 (stereo not drawn) | > 100 µM (inactive) | – | –
C=CCn1c(C)cc(C(=O)CSc2nnc(C3CC3)n2C2CC2)c1C | – | 48.6 | –
COc1cccc(SCC(=O)N2CCN(c3ccccc3)CC2)c1 | – | – | > 100
O=C1OCCC1Sc1nc2ccccc2c(=O)n1Cc1ccccc1 (stereo not drawn) | > 100 µM (inactive) | – | –
O=C(O)c1ccccc1NC(=O)C(c1ccccc1)c1ccccc1 | > 100 µM (inactive) | – | –
NC(=O)c1ccsc1NC(=O)COC(=O)Cc1ccc(F)cc1 | > 100 µM (inactive) | > 100 | –
Cc1ccc(CC2C(=O)N(c3cc(Cl)ccn3)C(=O)C2C)cc1 (stereo not drawn) | > 100 µM (inactive) | – | –
COc1ccc(OC)c(-c2nnc3n2N=C(c2ccc(OC)c(OC4CCOC4)c2)CS3)c1 (stereo not drawn) | > 100 µM (inactive) | – | –
CCN(CC)c1nc(Oc2ccc(C(=O)OC)cc2)nc(N2CCOCC2)n1 | > 100 µM (inactive) | – | –
